The target in the assay is T1, CXCR7 (Homo sapiens, UniProt P25106).
T1 construct: expressed in transfected cells; host or cells: CHO cells (CHO-CXCR7), transgenes maintained with Hygromycin B and G418
T1 sequence (P25106 whole entry): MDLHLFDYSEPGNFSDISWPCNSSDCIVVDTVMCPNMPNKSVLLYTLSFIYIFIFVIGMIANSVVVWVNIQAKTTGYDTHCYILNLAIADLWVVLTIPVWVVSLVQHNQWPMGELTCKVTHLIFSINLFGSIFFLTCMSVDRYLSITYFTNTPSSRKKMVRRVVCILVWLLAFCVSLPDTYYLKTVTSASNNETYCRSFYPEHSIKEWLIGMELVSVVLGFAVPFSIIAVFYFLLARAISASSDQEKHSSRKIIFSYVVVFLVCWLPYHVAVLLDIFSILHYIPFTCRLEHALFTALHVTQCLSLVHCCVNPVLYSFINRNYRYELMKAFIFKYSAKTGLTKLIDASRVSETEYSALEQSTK
Briefly: CXCR7 β-arrestin recruitment assay in CHO-CXCR7 cells (ProLink/EA β-galactosidase complementation), induced by human SDF-1a. The settings on record: assay buffer, SDF-1a at EC50 concentration. The assay is classed as cell-based. The method, boiled down: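 CHO cells co-expressing ProLink-tagged CXCR7 and β-arrestin-EA were pre-plated overnight, then given compound and human SDF-1α at its same-day EC50. After 1.5 h at 37 °C, complemented β-galactosidase was read from 0.4 mM 3-carboxyumbelliferyl β-D-galactopyranoside (30 min, 37 °C; ex 360/em 465 nm). IC50 by 3-parameter fit.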
Background: Arrestin recruitment assays detect the binding of arrestin to an activated receptor.
A word on the IC50: it is the concentration at which inhibition is half-maximal. Read a low IC50 as greater potency in that assay. In the case of `C[C@]1(O)CC[C@@H](N2CC(CC(=O)NC3(c4ccccn4)CC3)(NC(=O)c3cc(-c4ccc(F)cc4F)on3)C2)CC1` [Example 1.190], the 50% inhibitory concentration (IC50) fell in the range of 5 to 100 nM. With `C[C@]1(O)CC[C@H](N2CC(CC(=O)NC3(c4ccccn4)CC3)(NC(=O)c3cc(-c4ccc(F)cc4F)on3)C2)CC1` [Example 1.191] the figure was 5 to 100 nM; with `CC(C)(NC(=O)CC1(NC(=O)c2cc(-c3ccc(F)cc3F)on2)CN([C@H]2CC[C@@](C)(O)CC2)C1)c1ccccn1` [Example 1.192], less than 5 nM. Compound `CC(C)(NC(=O)CC1(NC(=O)c2cc(-c3ccc(F)cc3F)on2)CN([C@H]2CC[C@@](C)(O)CC2)C1)c1cccnc1` [Example 1.193] displayed a 50% inhibitory concentration (IC50) of 5 to 100 nM.

As for `CC(C)(NC(=O)CC1(NC(=O)c2cc(-c3ccc(F)cc3F)on2)CN([C@H]2CC[C@](C)(O)CC2)C1)c1cccnc1` [Example 1.194], the IC50 lay within 5 to 100 nM. With `COc1cccc(C(C)(C)NC(=O)CC2(NC(=O)c3cc(-c4ccc(F)cc4F)on3)CN([C@H]3CC[C@@](C)(O)CC3)C2)c1F` [Example 1.195] the figure was 5 to 100 nM; with `COc1cccc(C(C)(C)NC(=O)CC2(NC(=O)c3cc(-c4ccc(F)cc4F)on3)CN([C@H]3CC[C@](C)(O)CC3)C2)c1F` [Example 1.196], 100 to 1000 nM. In the case of `CC(C)(NC(=O)CC1(NC(=O)c2cc(-c3ccc(F)cc3F)on2)CN([C@H]2CC[C@@](C)(O)CC2)C1)c1cccc(OC(F)(F)F)c1` [Example 1.197], the IC50 is less than 5 nM.

For `CC(C)(NC(=O)CC1(NC(=O)c2cc(-c3ccc(F)cc3F)on2)CN([C@H]2CC[C@](C)(O)CC2)C1)c1cccc(OC(F)(F)F)c1` [Example 1.198], the 50% inhibitory concentration (IC50) lay within 5 to 100 nM. To `CC(C)(NC(=O)CC1(NC(=O)c2cc(-c3ccc(F)cc3F)on2)CN([C@H]2CC[C@](C)(O)CC2)C1)c1cccc(C(F)(F)F)c1` [Example 1.199] belongs 5 to 100 nM; to `COc1ccnc(C(C)(C)NC(=O)CC2(NC(=O)c3cc(-c4ccc(F)cc4F)on3)CN([C@H]3CC[C@@](C)(O)CC3)C2)c1` [Example 1.200], 5 to 100 nM; to `COc1ccnc(C(C)(C)NC(=O)CC2(NC(=O)c3cc(-c4ccc(F)cc4F)on3)CN([C@H]3CC[C@](C)(O)CC3)C2)c1` [Example 1.201], less than 5 nM. With `Cc1ccnc(C(C)(C)NC(=O)CC2(NC(=O)c3cc(-c4ccc(F)cc4F)on3)CN([C@H]3CC[C@](C)(O)CC3)C2)n1` [Example 1.202] the figure was less than 5 nM; with `COc1cccc(C(C)(C)NC(=O)CC2(NC(=O)c3cc(-c4ccc(F)cc4F)on3)CN([C@H]3CC[C@@](C)(O)CC3)C2)n1` [Example 1.203], less than 5 nM. To `COc1cccc(C(C)(C)NC(=O)CC2(NC(=O)c3cc(-c4ccc(F)cc4F)on3)CN([C@H]3CC[C@](C)(O)CC3)C2)n1` [Example 1.204] belongs less than 5 nM. In turn, `COc1ccc(F)c(C(C)(C)NC(=O)CC2(NC(=O)c3cc(-c4ccc(F)cc4F)on3)CN([C@H]3CC[C@@](C)(O)CC3)C2)c1` [Example 1.205] gave a half-maximal inhibitory concentration (IC50) of 5 to 100 nM.

On to `COc1ccc(F)c(C(C)(C)NC(=O)CC2(NC(=O)c3cc(-c4ccc(F)cc4F)on3)CN([C@H]3CC[C@](C)(O)CC3)C2)c1` [Example 1.206], for which the IC50 was 5 to 100 nM.

`CC(C)(NC(=O)CC1(NC(=O)c2cc(-c3ccc(F)cc3F)on2)CN([C@H]2CC[C@@](C)(O)CC2)C1)c1ccc(F)cn1` [Example 1.207] returned a 50% inhibitory concentration (IC50) of 100 to 1000 nM.

Compound `CCc1cccc(C(C)(C)NC(=O)CC2(NC(=O)c3cc(-c4ccc(F)cc4F)on3)CN([C@H]3CC[C@@](C)(O)CC3)C2)c1` [Example 1.208] registered a concentration for half-maximal inhibition (IC50) of less than 5 nM.

`CCc1cccc(C(C)(C)NC(=O)CC2(NC(=O)c3cc(-c4ccc(F)cc4F)on3)CN([C@H]3CC[C@](C)(O)CC3)C2)c1` [Example 1.209] had an IC50 of 5 to 100 nM. With `Cc1cc(C(C)(C)NC(=O)CC2(NC(=O)c3cc(-c4ccc(F)cc4F)on3)CN([C@H]3CC[C@@](C)(O)CC3)C2)ccn1` [Example 1.210] the figure was less than 5 nM. To `Cc1cc(C(C)(C)NC(=O)CC2(NC(=O)c3cc(-c4ccc(F)cc4F)on3)CN([C@H]3CC[C@](C)(O)CC3)C2)ccn1` [Example 1.211] belongs less than 5 nM; to `COc1ccc(C(C)(C)NC(=O)CC2(NC(=O)c3cc(-c4ccc(F)cc4F)on3)CN([C@H]3CC[C@@](C)(O)CC3)C2)c(F)c1` [Example 1.212], 5 to 100 nM; to `COc1ccc(C(C)(C)NC(=O)CC2(NC(=O)c3cc(-c4ccc(F)cc4F)on3)CN([C@H]3CC[C@](C)(O)CC3)C2)c(F)c1` [Example 1.213], 100 to 1000 nM. To `Cc1cccc(C(C)(C)NC(=O)CC2(NC(=O)c3cc(-c4ccc(F)cc4F)on3)CN([C@H]3CC[C@@](C)(O)CC3)C2)c1` [Example 1.214] belongs less than 5 nM; to `Cc1ccccc1C(C)(C)NC(=O)CC1(NC(=O)c2cc(-c3ccc(F)cc3F)on2)CN([C@H]2CC[C@](C)(O)CC2)C1` [Example 1.215], less than 5 nM; to `CC1(CN2CC(CC(=O)NC(C)(C)c3cccc(Cl)c3)(NC(=O)c3cc(-c4ccc(F)cc4F)on3)C2)COC1` [Example 1.216], less than 5 nM. In turn, `Cc1cccc(C(C)(C)NC(=O)CC2(NC(=O)c3cc(-c4ccc(F)cc4F)on3)CN(CC3(C)COC3)C2)n1` [Example 1.217] registered an IC50 of 5 to 100 nM. With `CC(C)(NC(=O)CC1(NC(=O)c2cc(-c3ccc(F)cc3F)on2)CN([C@H]2CC[C@@](C)(O)CC2)C1)c1ccccc1Cl` [Example 1.218] the figure was less than 5 nM; with `CC(C)(NC(=O)CC1(NC(=O)c2cc(-c3ccc(F)cc3F)on2)CN([C@H]2CC[C@](C)(O)CC2)C1)c1ccccc1Cl` [Example 1.219], less than 5 nM; with `CC(C)(NC(=O)CC1(NC(=O)c2cc(-c3ccc(F)cc3F)on2)CN([C@H]2CC[C@@](C)(O)CC2)C1)c1cccc(Cl)c1` [Example 1.220], less than 5 nM. With `CC(C)(NC(=O)CC1(NC(=O)c2cc(-c3ccc(F)cc3F)on2)CN([C@H]2CC[C@](C)(O)CC2)C1)c1cccc(Cl)c1` [Example 1.221] the figure was less than 5 nM; with `CC(C)(NC(=O)CC1(NC(=O)c2cc(-c3ccc(F)cc3F)on2)CN(CC2CCOCC2)C1)c1ccccn1` [Example 1.222], 100 to 1000 nM; with `CC(C)(NC(=O)CC1(NC(=O)c2cc(-c3ccc(F)cc3F)on2)CN(CC2CCOC2)C1)c1ccccn1` (centres unmarked) [Example 1.223], 100 to 1000 nM. Compound `CC1(CN2CC(CC(=O)NC(C)(C)c3ccccn3)(NC(=O)c3cc(-c4ccc(F)cc4F)on3)C2)COC1` [Example 1.224] gave an IC50 of 5 to 100 nM. With `Cc1cccc(C(C)(C)NC(=O)CC2(NC(=O)c3cc(-c4ccc(F)cc4F)on3)CN([C@H]3CC[C@@](C)(O)CC3)C2)n1` [Example 1.225] the figure was less than 5 nM; with `Cc1cccc(C(C)(C)NC(=O)CC2(NC(=O)c3cc(-c4ccc(F)cc4F)on3)CN(C3CCC4(CC3)COC4)C2)n1` [Example 1.226], 5 to 100 nM. To `CC(C)(NC(=O)CC1(NC(=O)c2cc(-c3ccc(F)cc3F)on2)CN([C@H]2CC[C@@](C)(O)CC2)C1)c1ccccc1F` [Example 1.227] belongs less than 5 nM; to `CC(C)(NC(=O)CC1(NC(=O)c2cc(-c3ccc(F)cc3F)on2)CN([C@H]2CC[C@](C)(O)CC2)C1)c1ccccc1F` [Example 1.228], less than 5 nM. With `CC(C)(O)CCN1CC(CC(=O)NC(C)(C)c2cccc(F)c2)(NC(=O)c2cc(-c3ccc(F)cc3F)on2)C1` [Example 1.229] the figure was 5 to 100 nM; with `CC(C)(O)CCN1CC(CC(=O)NC(C)(C)c2ccccn2)(NC(=O)c2cc(-c3ccc(F)cc3F)on2)C1` [Example 1.230], 1000 to 20000 nM. As for `CC(C)(O)CN1CC(CC(=O)NC(C)(C)c2ncccn2)(NC(=O)c2cc(-c3ccc(F)cc3F)on2)C1` [Example 1.231], the half-maximal inhibitory concentration (IC50) is 100 to 1000 nM. Compound `CC(C)(NC(=O)CC1(NC(=O)c2cc(-c3ccc(F)cc3F)on2)CN([C@H]2CC[C@@](C)(O)CC2)C1)c1ncccn1` [Example 1.232] came in with an IC50 of less than 5 nM. To `CC(C)(NC(=O)CC1(NC(=O)c2cc(-c3ccc(F)cc3F)on2)CN([C@H]2CC[C@](C)(O)CC2)C1)c1ncccn1` [Example 1.233] belongs less than 5 nM. Compound `CC(C)(NC(=O)CC1(NC(=O)c2cc(-c3ccc(F)cc3F)on2)CN(C2CCC3(CC2)COC3)C1)c1cccc(F)c1` [Example 1.234] yielded an IC50 of 5 to 100 nM. With `CC(C)(NC(=O)CC1(NC(=O)c2cc(-c3ccc(F)cc3F)on2)CN([C@H]2CC[C@@](C)(O)CC2)C1)c1cc(F)ccc1F` [Example 1.235] the figure was less than 5 nM; with `CC(C)(NC(=O)CC1(NC(=O)c2cc(-c3ccc(F)cc3F)on2)CN([C@H]2CC[C@](C)(O)CC2)C1)c1cc(F)ccc1F` [Example 1.236], less than 5 nM. Compound `Cc1cccc(C(C)(C)NC(=O)CC2(NC(=O)c3cc(-c4ccc(F)cc4F)on3)CN([C@H]3CC[C@](C)(O)CC3)C2)c1` [Example 1.237] showed an IC50 of less than 5 nM. To `COc1cccc(C(C)(C)NC(=O)CC2(NC(=O)c3cc(-c4ccc(F)cc4F)on3)CN([C@H]3CC[C@@](C)(O)CC3)C2)c1` [Example 1.238] belongs 5 to 100 nM. To `COc1cccc(C(C)(C)NC(=O)CC2(NC(=O)c3cc(-c4ccc(F)cc4F)on3)CN([C@H]3CC[C@](C)(O)CC3)C2)c1` [Example 1.239] belongs 5 to 100 nM.

Regarding `Cc1cccc(C(C)(C)NC(=O)CC2(NC(=O)c3cc(-c4ccc(F)cc4F)on3)CN(CC(C)(C)O)C2)n1` [Example 1.240], the IC50 fell in the range of 5 to 100 nM. To `COc1ccccc1C(C)(C)NC(=O)CC1(NC(=O)c2cc(-c3ccc(F)cc3F)on2)CN(C2CCC(C)(O)CC2)C1` (centres unmarked) [Example 1.241] belongs less than 5 nM. With `Cc1ccc(C(C)(C)NC(=O)CC2(NC(=O)c3cc(-c4ccc(F)cc4F)on3)CN([C@H]3CC[C@@](C)(O)CC3)C2)cc1` [Example 1.242] the figure was 100 to 1000 nM.

For the origin of these results see US12448373B2, “Azetidinyl-acetamides as CXCR7 inhibitors” (CHEMOCENTRYX, INC., priority 2021, dated 2025).
